How the values were obtained:
[1] = system: contaminants in heparinized human blood; assay: FCM of human blood by EMA-LNP-FP method versus LNP-FP method; type: cell-based; settings: 10 μl of 1000 μg/ml EMA to 1 ml blood, 4° C. 5 minutes, visible light 5 minutes
Description: Heparinized blood (type A) was collected from a healthy human subject, and a Listeria live cell suspension of 1.8×10^8 cfu/ml was diluted 10 times with the blood. The suspension was further serially diluted with the blood to prepare blood inoculated with 1.8×10^3 to […] cfu/ml of Listeria monocytogenes (live cells). […] Then, each sample was irradiated with visible light of 500 W for 5 minutes on ice. 750 μl of physiological saline, 200 μl of a 189 U/ml lipase solution and 10 μl of a 10000 U/ml deoxyribonuclease solution was added to each sample, and the sample was maintained at 30° C. for 30 minutes. […] The total volume of the aforementioned EMA-treated blood was carefully overlaid on 2 ml of Ficoll Paque filled beforehand in a 15 ml volume polypropylene tube, and subjected to centrifugation at 100×g for 5 minutes. […] The same procedure as that of the aforementioned method (referred to as the “EMA-LNP-FP method”) was also performed in parallel except that the EMA treatment was not performed (referred to as the “LNP-FP method”) to prepare a sample for FCM measurement.

[2] = system: chromosomal DNA of Citrobacter koseri JCM 1658; assay: Agarose gel electrophoresis of chromosomal DNA after EMA treatment, Citrobacter; type: cell-based; design: key: presence of this band was indicated as (+); absence of this band was indicated as (−); settings: EMA 4° C. 30 minutes
[3] = system: contaminants of somatic cells and injured cells in LTLT non-homogenized milk; assay: FCM after SYTO9/PI staining of LP-treated and EMA-treated LTLT non-homogenized milk not inoculated with bacteria; settings: LP-treated and EMA-treated (LPE-treated) LTLT non-homogenized milk not inoculated
Description: Each of the LTLT non-homogenized milk inoculated with Escherichia coli (live cells), LTLT non-homogenized milk inoculated with Staphylococcus epidermidis (live cells), and LTLT non-homogenized milk not inoculated with the bacteria was subjected to the same lipase treatment and proteinase K treatment (LP treatment) as well as EMA treatment as those in Example 2.
FCM measurement was performed for each of the samples prepared above (measurement time: 5 minutes) in the same manner as that in Control Example 1.

[4] = system: Mycobacterium tuberculosis H37RA; assay: FCM after SYTO9/PI staining of EMA-treated Mycobacterium tuberculosis (live, injured, dead cells)
[5] = system: Escherichia coli (injured cells); type: cell-based; settings: injured cells inoculated at 1.5×10^6 cfu/ml; LP treatment and EMA treatment
Escherichia coli DH5α = assay: FCM measurement after SYTO9/PI staining of EMA-treated Escherichia coli suspensions (live, injured, dead cells); type: cell-based
[6] = system: chromosomal DNA of Escherichia coli DH5α; assay: Agarose gel electrophoresis of chromosomal DNA after EMA treatment, Escherichia coli; type: cell-based; design: key: presence of this band was indicated as (+); absence of this band was indicated as (−)
[7] = system: chromosomal DNA of Salmonella enteritidis IID 604; assay: Agarose gel electrophoresis of chromosomal DNA after EMA treatment, Salmonella; type: cell-based; design: key: presence of this band was indicated as (+); absence of this band was indicated as (−); settings: EMA 4° C. 30 minutes
[8] = system: chromosomal DNA of Klebsiella oxytoca JCM 1665; assay: Agarose gel electrophoresis of chromosomal DNA after EMA treatment, Klebsiella; type: cell-based; design: key: presence of this band was indicated as (+); absence of this band was indicated as (−); settings: EMA 4° C. 30 minutes
[9] = system: Staphylococcus epidermidis KD strain; assay: FCM measurement after SYTO9/PI staining of LP-treated and EMA-treated Staphylococcus epidermidis suspensions; type: cell-based; settings: EMA treatment after LP treatment; 10 μl of 1000 μg/ml EMA to 1 ml, 4° C. 30 minutes, visible light 500 W 10 minutes
[10] = system: Listeria monocytogenes JCM 2873; assay: Colony formation of Listeria cultured with ampicillin and gentamycin; type: cell-based; settings: ampicillin 500 μg/ml together with gentamycin 200 μg/ml, 30° C. for 3 weeks
[11] = system: Escherichia coli (live cells) and contaminants originated in UHT homogenized milk; type: cell-based; settings: treatment after LP treatment, 37° C.; amsacrine 10 minutes, others 30 minutes; 7.5×10^6 cfu/ml
Source text: Specific procedures are as shown in a) to d) described below.

[12] = system: Mycobacterium tuberculosis H37RA; type: cell-based
[13] = after the EMA treatment (about 30 μg/ml, 4° C. 2.5 hours), injured cells treated with isonicotinic acid hydrazide and rifampicin
[14] = after the EMA treatment, dead cells (boiling water 12 minutes)
[15] = after the EMA treatment, injured cells (boiling water 50 seconds)
[16] = after the EMA treatment, live cells

CC[n+]1c(-c2ccccc2)c2cc(N=[N+]=[N-])ccc2c2ccc(N)cc21.[Cl-] [EMA, 8-azido-3-amino-6-phenyl-5-ethylphenanthradinium chloride]
shift of plotted points of the contaminants corresponding to SYTO9(−)·PI(−) [1]: not shifted to the left direction | LL band originated in chromosomal DNA, injured cells ([2]; EMA-treated injured cells): (−) | LL band originated in chromosomal DNA, live cells ([2]; EMA-treated live cells): (+) | SYTO9 intensity [3]: below 5×10^2 | PI region, injured cells [4, 13]: PI(−) (results lower than that value are represented as PI(−)) | SYTO9 region, injured cells [4, 13]: SYTO9(−) (results lower than that value are represented as SYTO9(−)) | SYTO9 region of main distribution, dead cells [4, 14]: SYTO9(+) (The boundary value of the intensity of the staining with SYTO9 is defined to be an intensity of 10^3, results exceeding that value are represented as SYTO9(+)) | SYTO9 intensity of the injured cells ([4]; by the EMA treatment): markedly shifted to the left direction | plotted points in the SYTO9(+)·PI(−) region suggesting the presence of live cells [5]: hardly existed | distinction of live cells and injured cells by FCM (Escherichia coli DH5α; EMA treatment after LP treatment, 10 μl of 1000 μg/ml EMA to 1 ml, 4° C. 30 minutes, visible light 500 W 10 minutes): clearly distinguish | intensity of staining with SYTO9 for injured cells (Escherichia coli DH5α; after the EMA treatment versus before): markedly decreased | PI region of main distribution, dead cells (Escherichia coli DH5α; [14]): PI(+) (The boundary value of the intensity of the staining with PI is defined to be an intensity of 2×10^2, results exceeding that value are represented as PI(+)) | SYTO9 region of main distribution, dead cells (Escherichia coli DH5α; [14]): SYTO9(−) (results lower than that value are represented as SYTO9(−)) | PI region of main distribution, injured cells (Escherichia coli DH5α; [15]): PI(−) (results lower than that value are represented as PI(−)) | SYTO9 region of main distribution, injured cells (Escherichia coli DH5α; [15]): SYTO9(−) (results lower than that value are represented as SYTO9(−)) | PI region of main distribution, live cells (Escherichia coli DH5α; [16]): PI(−) (results lower than that value are represented as PI(−)) | SYTO9 region of main distribution, live cells (Escherichia coli DH5α; [16]): SYTO9(+) (The boundary value of the intensity of the staining with SYTO9 is defined to be an intensity of 10^3, results exceeding that value are represented as SYTO9(+)) | LL band originated in chromosomal DNA, dead cells ([6]; EMA-treated dead cells (FIG. 11)): (−) | LL band originated in chromosomal DNA, injured cells ([6]; EMA-treated injured cells, EMA 4° C. 30 minutes): (−) | LL band originated in chromosomal DNA, live cells ([6]; EMA-treated live cells, EMA 4° C. 30 minutes): (+) | LL band originated in chromosomal DNA, injured cells ([7]; EMA-treated injured cells): (−) | LL band originated in chromosomal DNA, live cells ([7]; EMA-treated live cells): (+) | LL band originated in chromosomal DNA, injured cells ([8]; EMA-treated injured cells): (−) | LL band originated in chromosomal DNA, live cells ([8]; EMA-treated live cells): (+) | distinction of live cells and injured cells by FCM [9]: the same results

CC1(C)S[C@@H]2[C@H](NC(=O)[C@H](N)c3ccccc3)C(=O)N2[C@H]1C(=O)O [ampicillin]
colony formation on L agar medium [10]: did not form colonies

CC[C@@]1(O)C(=O)OCc2c1cc1n(c2=O)Cc2cc3ccccc3nc2-1 [camptothecin]
separation of plotted areas of Escherichia coli (live cells) and contaminants [11]: clearly separated

O=C(O)c1cn(C2CC2)c2cc(N3CCNCC3)c(F)cc2c1=O [ciprofloxacin]
separation of plotted areas of Escherichia coli (live cells) and contaminants [11]: clearly separated

Cc1c2ccncc2c(C)c2c1[nH]c1ccccc12 [ellipticine]
separation of plotted areas of Escherichia coli (live cells) and contaminants [11]: clearly separated

NNC(=O)c1ccncc1 [isonicotinic acid hydrazide]
colony formation on 7H10 medium [12]: did not form colonies

gentamycin
colony formation on L agar medium [10]: did not form colonies
